Experimental findings from ChEMBL document CHEMBL1142614, “An antimicrobial C(14) acetylenic acid from a marine sponge Oceanapia species” (2000) are described below.

Structures are written as SMILES. Calls of active or inactive are those of the source. No cut-off for these calls is given here.

The subject of assay [1] is Saccharomyces cerevisiae. Kind of assay: Antimicrobial activity against Saccharomyces cerevisiae GT160-45C at 100 ug after 24 hrs. The conditions noted are these: read-out: IZ. Type of assay: functional.
The test system of assay [2] is Saccharomyces cerevisiae. In words: Antimicrobial activity against Saccharomyces cerevisiae cdc5 mutant at 50 ug after 24 hrs. Type of assay: functional. The note with it: read-out: IZ.
The test system of assay [3] is Saccharomyces cerevisiae. In words: Antimicrobial activity against Saccharomyces cerevisiae act1-1 mutant at 50 ug after 24 hrs. Type of assay: functional. The note with it: read-out: IZ.
The subject of assay [4] is Saccharomyces cerevisiae. In words: Antimicrobial activity against Saccharomyces cerevisiae YAT2296 mutant at 50 ug after 24 hrs. The conditions noted are these: read-out: IZ. It is filed as functional.
For assay [5], the system named is Saccharomyces cerevisiae. In words: Antimicrobial activity against Saccharomyces cerevisiae cdc5 mutant at 100 ug after 24 hrs. The note with it: read-out: IZ. It is filed as functional.
In assay [6] the test system is Saccharomyces cerevisiae. In words: Antimicrobial activity against Saccharomyces cerevisiae act1-1 mutant at 100 ug after 24 hrs. The conditions noted are these: read-out: IZ. It is filed as functional.
Assay [7] deals with Saccharomyces cerevisiae. In words: Antimicrobial activity against Saccharomyces cerevisiae YAT2296 mutant at 100 ug after 24 hrs. It is filed as functional. The note with it: read-out: IZ.
The next assay has as its system Penicillium chrysogenum. Kind of assay: Antimicrobial activity against Penicillium chrysogenum after 24 hrs. It is filed as functional, organism-based.
The next assay has as its system Candida albicans. In words: Antimicrobial activity against Candida albicans at 100 ug after 24 hrs. It is filed as functional. The note with it: read-out: IZ.
The test system of another assay is Umbelopsis ramanniana. Kind of assay: Antimicrobial activity against Mortierella ramanniana after 24 hrs. It is filed as functional, organism-based.
Assay [8] concerns Escherichia coli. Kind of assay: Antimicrobial activity against Escherichia coli at 50 ug after 24 hrs. Type of assay: functional. The conditions noted are these: read-out: IZ.
For assay [9], the system named is Escherichia coli. Kind of assay: Antimicrobial activity against Escherichia coli at 100 ug after 24 hrs. The conditions noted are these: read-out: IZ. It is filed as functional.
The test system of assay [10] is Pseudomonas aeruginosa. In words: Antimicrobial activity against Pseudomonas aeruginosa at 50 ug after 24 hrs. It is filed as functional. The note with it: read-out: IZ.
Assay [11] deals with Pseudomonas aeruginosa. Kind of assay: Antimicrobial activity against Pseudomonas aeruginosa at 100 ug after 24 hrs. Type of assay: functional. The note with it: read-out: IZ.
In another assay the test system is Bacillus subtilis. In words: Antimicrobial activity against Bacillus subtilis at 100 ug after 24 hrs. Type of assay: functional. The conditions noted are these: read-out: IZ.
Assay [12] has as its system Staphylococcus aureus. Kind of assay: Antimicrobial activity against Staphylococcus aureus at 50 ug after 24 hrs. It is filed as functional. The conditions noted are these: read-out: IZ.
For assay [13], the system named is Staphylococcus aureus. In words: Antimicrobial activity against Staphylococcus aureus at 100 ug after 24 hrs. It is filed as functional. The note with it: read-out: IZ.

Turning to `CC/C=C/C#C/C=C/C#CCCCC(=O)O`, the zone of inhibition at 100 µg/disc in the assay on Saccharomyces cerevisiae [1] turned out to be 6.5 mm; in the assay on Saccharomyces cerevisiae [5], 7.5 mm; in the assay on Saccharomyces cerevisiae [6], 10 mm; in the assay on Saccharomyces cerevisiae [7], 7 mm; with Candida albicans, 8.5 mm; with Escherichia coli [9], 12 mm. In addition, the zone of inhibition at 100 µg/disc with Pseudomonas aeruginosa [11] was 13 mm; with Bacillus subtilis, 11 mm; with Staphylococcus aureus [13], 13.5 mm. In addition, the zone of inhibition at 50 µg/disc in the assay on Saccharomyces cerevisiae [2] came out at 7 mm; in the assay on Saccharomyces cerevisiae [3] it was 9 mm; in the assay with Saccharomyces cerevisiae [4], 6.5 mm; in the assay on Escherichia coli [8], 8.5 mm; in the assay with Pseudomonas aeruginosa [10], 8.5 mm; in the assay on Staphylococcus aureus [12], 9.5 mm. The outcome in the assay with Penicillium chrysogenum and with Umbelopsis ramanniana was inactive.
